Data from patent US20240368127A1, “HSD17B13 INHIBITORS AND USES THEREOF” (FL2022-001, Inc., priority 2021, published 2024).

Molecular target: T1, Recombinant human HSD17B13 enzyme (Homo sapiens, UniProt Q7Z5P4)
T1 sequence (Q7Z5P4 20-300): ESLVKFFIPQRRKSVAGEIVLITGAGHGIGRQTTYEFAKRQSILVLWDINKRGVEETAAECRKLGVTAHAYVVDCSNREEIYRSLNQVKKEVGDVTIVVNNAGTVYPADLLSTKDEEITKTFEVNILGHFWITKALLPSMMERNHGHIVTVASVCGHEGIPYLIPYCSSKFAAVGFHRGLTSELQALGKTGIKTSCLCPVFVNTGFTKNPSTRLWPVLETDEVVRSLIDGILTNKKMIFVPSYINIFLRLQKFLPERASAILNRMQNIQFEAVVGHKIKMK
Test: HSD17b13 NAD(P)H-Glo biochemical assay
Settings: 50 μM estradiol, 1 mM NAD+, 37° C. for 3 hours; read-out: HSD17β13 IC50
Procedure, shortened: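 Enzyme preincubated with inhibitor 20 min at RT in 20 mM Tris pH7.4, 0.002% Tween-20, 0.02% BSA, then reacted 3 h at 37° C with 50 μM estradiol and 1 mM NAD+ (final). NADH formation read by NAD(P)H-Glo luminescence after 1 h at RT.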

SMILES | IC50 [nM]
Cn1nc(-c2cc(C(F)(F)F)c(F)c(O)c2F)c2cnc(N3CCN(S(C)(=O)=O)[C@H](Cc4ccccc4)C3)nc21 [Compound 5.15, (R)-3-(6-(3-Benzyl-4-(methylsulfonyl)piperazin-1-yl)-1-methyl-1H-pyrazolo[3,4-d]pyrimidin-3-yl)-2,6-difluoro-5-(trifluoromethyl)phenol] | ≤ 100
Oc1c(F)cc2nnn(-c3ccc(N4CCCC(Cc5ccccc5)CC4)cc3)c2c1F (stereo not drawn) [Compound 1.09, 1-(4-(4-Benzylazepan-1-yl)phenyl)-5,7-difluoro-1H-benzo[d][1,2,3]triazol-6-ol] | ≤ 100
CCC(=O)N1CCN(c2ncc3c(-c4cc(C(F)(F)F)c(F)c(O)c4F)nn(C)c3n2)[C@H](Cc2ccccc2)C1 [Compound 6.09, (R)-1-(3-Benzyl-4-(3-(2,4-difluoro-3-hydroxy-5-(trifluoromethyl)phenyl)-1-methyl-1H-pyrazolo[3,4-d]pyrimidin-6-yl)piperazin-1-yl)propan-1-one] | ≤ 100
Cn1nc(-c2cc(C(F)(F)F)c(F)c(O)c2F)c2cnc(N3CCN(S(C)(=O)=O)C(CC4CCC4)C3)nc21 (stereo not drawn) [Compound 5.37, 3-(6-(3-(Cyclobutylmethyl)-4-(methylsulfonyl)piperazin-1-yl)-1-methyl-1H-pyrazolo[3,4-d]pyrimidin-3-yl)-2,6-difluoro-5-(trifluoromethyl)phenol] | ≤ 100
Cn1nc(-c2cc(C(F)(F)F)c(F)c(O)c2F)c2cnc(N3CCC(O)(CN4CCOCC4)CC3)nc21 [Compound 5.05, 1-(3-(2,4-Difluoro-3-hydroxy-5-(trifluoromethyl)phenyl)-1-methyl-1H-pyrazolo[3,4-d]pyrimidin-6-yl)-4-(morpholinomethyl)piperidin-4-ol] | 100 to 1000
CC(=O)N1CCN(c2ncc3c(-c4cc(C(F)(F)F)c(F)c(O)c4F)nn(C)c3n2)[C@H](Cc2ccccc2)C1 [Compound 6.02, (R)-1-(3-Benzyl-4-(3-(2,4-difluoro-3-hydroxy-5-(trifluoromethyl)phenyl)-1-methyl-1H-pyrazolo[3,4-d]pyrimidin-6-yl)piperazin-1-yl)ethan-1-one] | ≤ 100
Cn1nc(-c2cc(C(F)(F)F)c(F)c(O)c2F)c2cnc(N3CC(=O)NC[C@H]3Cc3ccccc3)nc21 [Compound 15.09, (R)-5-Benzyl-4-(3-(2,4-difluoro-3-hydroxy-5-(trifluoromethyl)phenyl)-1-methyl-1H-pyrazolo[3,4-d]pyrimidin-6-yl)piperazin-2-one] | ≤ 100
Cc1c(F)cc(-c2nn(C)c3nc(N4CCN(S(C)(=O)=O)C[C@H]4Cc4ccccc4)ncc23)c(F)c1O [Compound 11.20, (R)-3-(6-(2-Benzyl-4-(methylsulfonyl)piperazin-1-yl)-1-methyl-1H-pyrazolo[3,4-d]pyrimidin-3-yl)-2,5-difluoro-6-methylphenol] | ≤ 100
Cn1nc(-c2cc(C(F)(F)F)c(F)c(O)c2F)c2cnc(N3CCCCC3Cn3cncn3)nc21 (stereo not drawn) [Compound 5.34, 3-(6-(2-((1H-1,2,4-Triazol-1-yl)methyl)piperidin-1-yl)-1-methyl-1H-pyrazolo[3,4-d]pyrimidin-3-yl)-2,6-difluoro-5-(trifluoromethyl)phenol] | 100 to 1000
COc1ccc(C[C@@H]2COCCN2c2ncc3c(-c4cc(C(F)(F)F)c(F)c(O)c4F)nn(C)c3n2)cc1 [Compound 5.28, (R)-2,6-Difluoro-3-(6-(3-(4-methoxybenzyl)morpholino)-1-methyl-1H-pyrazolo[3,4-d]pyrimidin-3-yl)-5-(trifluoromethyl)phenol] | ≤ 100
Cc1nn(-c2cc(C(F)(F)F)c(F)c(O)c2F)c2cnc(N3CCN(S(C)(=O)=O)C[C@H]3Cc3ccccc3)nc12 [Compound 2, (R)-3-(5-(2-Benzyl-4-(methylsulfonyl)piperazin-1-yl)-3-methyl-1H-pyrazolo[4,3-d]pyrimidin-1-yl)-2,6-difluoro-5-(trifluoromethyl)phenol] | ≤ 100
Cn1nc(-c2cc(C(F)(F)F)c(F)c(O)c2F)c2cnc(N3CCO[C@@H](Cc4ccc(C#N)cc4)C3)nc21 [Compound 12.02, (S)-4-((4-(3-(2,4-Difluoro-3-hydroxy-5-(trifluoromethyl)phenyl)-1-methyl-1H-pyrazolo[3,4-d]pyrimidin-6-yl)morpholin-2-yl)methyl)benoznitrile] | ≤ 100
CS(=O)(=O)N1CCN(c2cc3c(Cl)nn(-c4cc(C(F)(F)F)c(Cl)c(O)c4F)c3cn2)[C@H](Cc2ccccc2)C1 [Compound 2.22, (R)-3-(5-(2-Benzyl-4-(methylsulfonyl)piperazin-1-yl)-3-chloro-1H-pyrazolo[3,4-c]pyridin-1-yl)-6-chloro-2-fluoro-5-(trifluoromethyl)phenol] | ≤ 100
COC(=O)N1CCN(c2ncc3c(-c4cc(C(F)(F)F)c(F)c(O)c4F)nn(C)c3n2)C[C@@H]1Cc1ccccc1 [Compound 6.08, Methyl (S)-2-benzyl-4-(3-(2,4-difluoro-3-hydroxy-5-(trifluoromethyl)phenyl)-1-methyl-1H-pyrazolo[3,4-d]pyrimidin-6-yl)piperazine-1-carboxylate] | ≤ 100
Cn1nc(-c2cc(F)c(Cl)c(O)c2F)c2cnc(N3CCN(S(C)(=O)=O)C[C@H]3Cc3ccccc3)nc21 [Compound 11.10, (R)-3-(6-(2-Benzyl-4-(methylsulfonyl)piperazin-1-yl)-1-methyl-1H-pyrazolo[3,4-d]pyrimidin-3-yl)-6-chloro-2,5-difluorophenol] | ≤ 100
Cc1nn(-c2ccc(Cl)c(O)c2F)c2cnc(N3CCN(S(C)(=O)=O)C[C@H]3Cc3ccccc3)cc12 [Compound 2.16, (R)-3-(5-(2-Benzyl-4-(methylsulfonyl)piperazin-1-yl)-3-methyl-1H-pyrazolo[3,4-c]pyridin-1-yl)-6-chloro-2-fluorophenol] | ≤ 100
CN1CCN(c2ncc3c(-c4cc(C(F)(F)F)c(F)c(O)c4F)nn(C)c3n2)C(Cc2ccccc2)C1 (stereo not drawn) [Compound 5.12, 3-(6-(2-Benzyl-4-methylpiperazin-1-yl)-1-methyl-1H-pyrazolo[3,4-d]pyrimidin-3-yl)-2,6-difluoro-5-(trifluoromethyl)phenol] | ≤ 100
Cn1nc(-c2cc(C(F)(F)F)c(F)c(O)c2F)c2cnc(N3CCOC[C@H]3C(C)(C)O)nc21 [Compound 15.13, (S)-2,6-Difluoro-3-(6-(3-(2-hydroxypropan-2-yl)morpholino)-1-methyl-1H-pyrazolo[3,4-d]pyrimidin-3-yl)-5-(trifluoromethyl)phenol] | ≤ 100
CNC(=O)N1CCN(c2ncc3c(-c4cc(C(F)(F)F)c(F)c(O)c4F)nn(C)c3n2)C[C@@H]1Cc1ccccc1 [Compound 6.06, (S)-2-Benzyl-4-(3-(2,4-difluoro-3-hydroxy-5-(trifluoromethyl)phenyl)-1-methyl-1H-pyrazolo[3,4-d]pyrimidin-6-yl)-N-methylpiperazine-1-carboxamide] | ≤ 100
Cc1nn(-c2cc(Cl)c(F)c(O)c2F)c2cnc(N3CCN(S(C)(=O)=O)C[C@H]3Cc3ccccc3)nc12 [Compound 2.35, (R)-3-(5-(2-Benzyl-4-(methylsulfonyl)piperazin-1-yl)-3-methyl-1H-pyrazolo[4,3-c]pyrimidin-1-yl)-5-chloro-2,6-difluorophenol] | ≤ 100
Cc1nn(-c2cc(C(F)(F)F)c(F)c(O)c2F)c2cnc(N3CCOCC3Cc3ccccc3)cc12 (stereo not drawn) [Compound 2.01, 3-(5-(3-Benzylmorpholino)-3-methyl-1H-pyrazolo[3,4-c]pyridin-1-yl)-2,6-difluoro-5-(trifluoromethyl)phenol] | ≤ 100
Cn1nc(-c2cc(C(F)(F)F)c(F)c(O)c2F)c2cnc(N3CCC3Cc3ccccc3)nc21 (stereo not drawn) [Compound 5.19, 3-(6-(2-Benzylazetidin-1-yl)-1-methyl-1H-pyrazolo[3,4-d]pyrimidin-3-yl)-2,6-difluoro-5-(trifluoromethyl)phenol] | ≤ 100
Oc1c(F)cc2nnn(-c3ccc(N4CCOC[C@H]4Cc4ccccc4)cc3)c2c1F [Compound 1.05, (R)-1-(4-(3-Benzylmorpholino)phenyl)-5,7-difluoro-1H-benzo[d][1,2,3]triazol-6-ol] | 100 to 1000
CS(=O)(=O)N1CCN(c2ncc3c(-c4cc(C(F)(F)F)c(F)c(O)c4F)n[nH]c3n2)C[C@@H]1Cc1ccccc1 [Compound 5.22, (S)-3-(6-(3-Benzyl-4-(methylsulfonyl)piperazin-1-yl)-1H-pyrazolo[3,4-d]pyrimidin-3-yl)-2,6-difluoro-5-(trifluoromethyl)phenol] | ≤ 100
CS(=O)(=O)N1CCN(c2cc3c(N)nn(-c4cc(C(F)(F)F)c(F)c(O)c4F)c3cn2)[C@H](Cc2ccccc2)C1 [Compound 2.23, (R)-3-(3-Amino-5-(2-benzyl-4-(methylsulfonyl)piperazin-1-l)-1H-pyrazolo[3,4-c]pyridin-1-yl)-2,6-difluoro-5-(trifluoromethyl)phenol] | ≤ 100
Cn1nc(-c2cc(C(F)(F)F)c(F)c(O)c2F)c2cnc(N3CCO[C@@H](Cc4ccc(S(N)(=O)=O)cc4)C3)nc21 [Compound 12.08, (S)-4-((4-(3-(2,4-Difluoro-3-hydroxy-5-(trifluoromethyl)phenyl)-1-methyl-1H-pyrazolo[3,4-d]pyrimidin-6-yl)morpholin-2-y)methyl)benzenesulfonamide] | ≤ 100
Cc1nn(-c2cc(C(F)(F)F)c(Cl)c(O)c2F)c2ccc(N3CCN(S(C)(=O)=O)C[C@H]3Cc3ccccc3)cc12 [Compound 2.27, (R)-3-(5-(2-Benzyl-4-(methylsulfonyl)piperazin-1-yl)-3-methyl-1H-indazol-1-yl)-6-chloro-2-fluoro-5-(trifluoromethyl)phenol] | ≤ 100
